One assay addresses Bcr/Abl fusion protein (Homo sapiens, UniProt P00519). In words: Inhibition of wild-type Bcr-Abl (unknown origin) in presence of ATP. It counts as protein assay.
Assay [1] is described as follows: Inhibition of C-Src (unknown origin) in presence of ATP. More on the design: species or system Homo sapiens.
For assay [2], the system named is K562. As to the kind of experiment: Cytotoxicity against human K562 cells assessed as growth inhibition incubated for 72 hrs by MTT assay. It counts as functional, cell-based. The note with it: K562, 72 h. A general note: Formazan colour is commonly taken as a measure of viable cells.
The subject of assay [3] is A549. As to the kind of experiment: Cytotoxicity against human A549 cells assessed as growth inhibition incubated for 72 hrs by MTT assay. It counts as functional, cell-based. To be noted: A549, 72 h.
Assay [4] concerns MCF7. As to the kind of experiment: Cytotoxicity against human MCF7 cells assessed as growth inhibition incubated for 72 hrs by MTT assay. The note with it: MCF7, 72 h. Format: functional, cell-based.
Assay [5] concerns MCF7. As to the kind of experiment: Cytotoxicity against human MCF7 cells assessed as growth inhibition at 10 uM incubated for 72 hrs by MTT assay relative to control. It counts as functional.
In assay [6] the test system is HCT-116. In words: Cytotoxicity against human HCT-116 cells assessed as growth inhibition incubated for 72 hrs by MTT assay. It counts as functional, cell-based. To be noted: HCT-116, 72 h.
Assay [7] deals with K562. As to the kind of experiment: Cytotoxicity against human K562 cells assessed as growth inhibition at 10 uM incubated for 72 hrs by MTT assay relative to control. Format: functional.
The subject of assay [8] is HCT-116. In words: Cytotoxicity against human HCT-116 cells assessed as growth inhibition at 10 uM incubated for 72 hrs by MTT assay relative to control. It counts as functional.
For assay [9], the system named is A549. In words: Cytotoxicity against human A549 cells assessed as growth inhibition at 10 uM incubated for 72 hrs by MTT assay relative to control. It counts as functional.
In assay [10] the target is Bcr/Abl fusion protein (Homo sapiens) (UniProt P00519+P11274). In words: Inhibition of wild-type Bcr-Abl (unknown origin) at 10 uM in presence of ATP relative to control. It counts as protein assay.
Bcr/Abl fusion protein (Homo sapiens), sequence (P00519 whole entry, looked up, the tested form may be a part): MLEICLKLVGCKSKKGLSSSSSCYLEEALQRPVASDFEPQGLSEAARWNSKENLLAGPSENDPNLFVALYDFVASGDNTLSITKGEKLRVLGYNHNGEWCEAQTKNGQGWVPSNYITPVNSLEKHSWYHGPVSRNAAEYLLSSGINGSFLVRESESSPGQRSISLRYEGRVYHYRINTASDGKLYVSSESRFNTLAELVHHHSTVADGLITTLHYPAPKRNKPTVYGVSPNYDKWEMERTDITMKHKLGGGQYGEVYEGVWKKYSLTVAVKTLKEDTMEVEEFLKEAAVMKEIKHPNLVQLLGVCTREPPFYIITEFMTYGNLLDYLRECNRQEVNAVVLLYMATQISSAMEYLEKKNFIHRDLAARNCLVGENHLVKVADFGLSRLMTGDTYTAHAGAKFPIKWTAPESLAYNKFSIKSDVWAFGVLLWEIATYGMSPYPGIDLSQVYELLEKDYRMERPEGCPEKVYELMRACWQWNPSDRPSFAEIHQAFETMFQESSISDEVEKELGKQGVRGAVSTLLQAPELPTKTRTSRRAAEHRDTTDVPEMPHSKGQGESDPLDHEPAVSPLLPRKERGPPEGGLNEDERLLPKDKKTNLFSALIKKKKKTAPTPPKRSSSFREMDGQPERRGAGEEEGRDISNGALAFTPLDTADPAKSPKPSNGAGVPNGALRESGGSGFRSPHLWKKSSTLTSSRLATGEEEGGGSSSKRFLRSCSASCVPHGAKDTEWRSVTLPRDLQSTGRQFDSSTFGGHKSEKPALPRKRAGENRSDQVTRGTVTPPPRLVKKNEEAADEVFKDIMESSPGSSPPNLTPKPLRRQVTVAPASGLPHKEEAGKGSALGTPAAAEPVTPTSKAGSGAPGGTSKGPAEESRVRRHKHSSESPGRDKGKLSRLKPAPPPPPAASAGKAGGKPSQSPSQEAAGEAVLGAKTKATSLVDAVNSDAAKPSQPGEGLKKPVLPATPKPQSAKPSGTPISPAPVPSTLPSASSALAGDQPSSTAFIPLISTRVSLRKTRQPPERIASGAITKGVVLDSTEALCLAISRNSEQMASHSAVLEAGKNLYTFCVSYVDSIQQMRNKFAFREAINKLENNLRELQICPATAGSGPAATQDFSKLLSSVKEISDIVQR
Bcr/Abl fusion protein (Homo sapiens), sequence (P11274 whole entry, looked up, the tested form may be a part): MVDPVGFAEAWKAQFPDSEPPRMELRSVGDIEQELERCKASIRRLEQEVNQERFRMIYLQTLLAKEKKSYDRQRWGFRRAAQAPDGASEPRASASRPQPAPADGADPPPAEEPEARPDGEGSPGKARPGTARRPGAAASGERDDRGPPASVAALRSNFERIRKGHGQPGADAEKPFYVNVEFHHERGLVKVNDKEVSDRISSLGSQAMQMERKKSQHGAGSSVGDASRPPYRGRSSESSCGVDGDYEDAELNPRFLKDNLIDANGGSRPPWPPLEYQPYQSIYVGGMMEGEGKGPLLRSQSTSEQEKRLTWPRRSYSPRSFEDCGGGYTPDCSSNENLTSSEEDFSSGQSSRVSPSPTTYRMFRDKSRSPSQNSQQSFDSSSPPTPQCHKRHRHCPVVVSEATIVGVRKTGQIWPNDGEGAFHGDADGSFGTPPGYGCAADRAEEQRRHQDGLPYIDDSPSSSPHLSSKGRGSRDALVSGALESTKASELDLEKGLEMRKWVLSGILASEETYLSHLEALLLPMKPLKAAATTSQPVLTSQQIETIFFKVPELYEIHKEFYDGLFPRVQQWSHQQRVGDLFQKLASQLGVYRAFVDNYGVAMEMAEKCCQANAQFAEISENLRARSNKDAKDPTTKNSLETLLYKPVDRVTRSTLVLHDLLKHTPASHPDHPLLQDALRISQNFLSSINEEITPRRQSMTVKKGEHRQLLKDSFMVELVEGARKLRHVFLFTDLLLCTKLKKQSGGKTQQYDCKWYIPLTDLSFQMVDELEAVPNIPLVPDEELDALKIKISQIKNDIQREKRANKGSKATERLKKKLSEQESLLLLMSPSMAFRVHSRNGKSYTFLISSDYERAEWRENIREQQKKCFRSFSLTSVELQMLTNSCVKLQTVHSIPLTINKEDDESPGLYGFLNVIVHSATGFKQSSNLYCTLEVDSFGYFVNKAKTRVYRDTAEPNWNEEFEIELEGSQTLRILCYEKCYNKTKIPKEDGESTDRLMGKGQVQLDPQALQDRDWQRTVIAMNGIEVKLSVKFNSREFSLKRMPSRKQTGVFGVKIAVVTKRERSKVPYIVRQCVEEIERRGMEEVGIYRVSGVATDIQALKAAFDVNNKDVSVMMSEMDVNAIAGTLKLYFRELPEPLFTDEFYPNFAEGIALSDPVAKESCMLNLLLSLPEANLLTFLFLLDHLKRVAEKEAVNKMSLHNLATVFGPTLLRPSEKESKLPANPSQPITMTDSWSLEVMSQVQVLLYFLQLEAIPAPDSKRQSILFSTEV
Another assay is filed under the species Homo sapiens. In words: Inhibition of C-Src (unknown origin) at 10 uM in presence of ATP relative to control.

We go through 23 compounds from ChEMBL document CHEMBL6109056, “Disrupted target binding with acryloyl group as potential Bcr-Abl/C-Src dual kinase inhibitor optimization strategies with maintained antitumor activity” (Bioorg Med Chem Lett, 2025).

Bcr/Abl fusion protein, sequence (P00519 whole entry, the tested form may be a part): as the sequence (P00519 whole entry, looked up, the tested form may be a part) above
Bcr/Abl fusion protein, sequence (P11274 whole entry, further chain, the tested form may be a part): as the sequence (P11274 whole entry, looked up, the tested form may be a part) above

For `COc1cc(Nc2c(C#N)cnc3cc(OC)c(OC)cc23)c(Cl)cc1Cl`, the IC50 (commonly the concentration that gives 50% inhibition) on Bcr/Abl fusion protein is 0.76 nM; in assay [1] it was 0.77 nM.
In the case of `C=CC(=O)N(c1cc(OC)ccc1Cl)c1c(C#N)cnc2cc(OCCCN3CCCCC3)c(OC)cc12`, the EC50 – broadly, the midpoint of the concentration-response curve – with K562 [2] was determined as 9760 nM; in the assay with A549 [3], 8900 nM; in the assay with MCF7 [4], 9450 nM. Further, the half-maximal inhibitory concentration (IC50) at Bcr/Abl fusion protein worked out at 112 nM; in [1], 132 nM.
On to `C=CC(=O)N(c1cc(OC)c(Cl)cc1Cl)c1c(C#N)cnc2cc(OC)c(OC)cc12`, for which the IC50 at Bcr/Abl fusion protein was 893 nM; in [1] it was 863 nM.
The like results for `C=CC(=O)N(c1ccc(Br)cc1Br)c1c(C#N)cnc2cc(OC)c(OC)cc12` were, in that order, above 10000 nM and 8520 nM.
As to `COc1ccc(Cl)c(Nc2c(C#N)cnc3cc(OCCCN4CCCCC4)c(OC)cc23)c1`, the values for the EC50 in the assay on K562 [2] and with A549 [3] were 8070 nM and 7870 nM, respectively. Besides, the inhibition (as a rule, the relative decrease from the control value, in per cent) at 10 µM in the assay with MCF7 [5] was 29%. Also, the IC50 on Bcr/Abl fusion protein turned out to be 0.3 nM; in assay [1] it was 0.35 nM.
On to `C=CC(=O)N(c1ccc(Cl)cc1Cl)c1c(C#N)cnc2cc(OC)c(OC)cc12`, for which the concentration for half-maximal inhibition (IC50) at Bcr/Abl fusion protein was found to be 1330 nM; in assay [1], 2080 nM.
As for `C=CC(=O)N(c1cc(OC)c(Cl)cc1Cl)c1c(C#N)cnc2cc(OCCCN3CCN(C)CC3)c(OC)cc12`, the 50% effective concentration (EC50) with K562 [2] came to 1060 nM; with A549 [3] it was 1440 nM; in the assay on HCT-116 [6], 4860 nM. Besides, the 50% inhibitory concentration (IC50) on Bcr/Abl fusion protein was 56.2 nM; in assay [1] it was 101 nM.
`COc1ccc(Cl)c(Nc2c(C#N)cnc3cc(OCCCN4CCOCC4)c(OC)cc23)c1`: the EC50 is 1190 nM in the assay on K562 [2], 7150 nM in the assay on A549 [3] and 9340 nM in the assay with MCF7 [4]. Moreover, the IC50 on Bcr/Abl fusion protein came out at 0.23 nM; in [1] it was 0.33 nM.
Regarding `COc1cc(Nc2c(C#N)cnc3cc(OCCCN4CCCCC4)c(OC)cc23)c(Cl)cc1Cl`, the EC50 with K562 [2] is 7330 nM; with A549 [3] it was 8560 nM; in the assay with HCT-116 [6], 7990 nM. Also, the IC50 was found to be 0.14 nM at Bcr/Abl fusion protein and 0.11 nM in assay [1].
In the case of `C=CC(=O)N(c1cc(OC)ccc1Cl)c1c(C#N)cnc2cc(OC)c(OC)cc12`, the results for the IC50 (at Bcr/Abl fusion protein; in assay [1]) were 569 nM and 1840 nM, respectively.
On to `C=CC(=O)N(c1cc(OC)c(Cl)cc1Cl)c1c(C#N)cnc2cc(OCCCN3CCOCC3)c(OC)cc12`, for which the EC50 in the assay on K562 [2] came to 6390 nM; with A549 [3], 4170 nM; in the assay on MCF7 [4] it was 7850 nM. For the same compound, the IC50 is 169 nM on Bcr/Abl fusion protein and 110 nM in assay [1].
As to `COc1cc(N(C(C)=O)c2c(C#N)cnc3cc(OCCCN4CCCCC4)c(OC)cc23)c(Cl)cc1Cl`, the inhibition at 10 µM in the assay with K562 [7] was 31%; with MCF7 [5], 34%; in the assay with HCT-116 [8], 34%; in the assay on A549 [9], 28%. For the same compound, the half-maximal inhibitory concentration (IC50) at Bcr/Abl fusion protein came to 1100 nM; in assay [1], 770 nM.
Regarding `COc1cc2ncc(C#N)c(Nc3ccccc3)c2cc1OC`, the figures for the inhibition (in [10]; in the assay filed under Homo sapiens) were 98.7% and 96.5%, respectively.
As to `C=CC(=O)N(c1cc(OC)ccc1Cl)c1c(C#N)cnc2cc(OCCCN3CCN(C)CC3)c(OC)cc12`, in the assay on K562 [2], the half-maximal effective concentration (EC50) came out at 9830 nM. For the same compound, the results for the inhibition at 10 µM in the assay with MCF7 [5] and with A549 [9] were 40% and 32%, respectively. Moreover, the results for the half-inhibitory concentration (IC50) (on Bcr/Abl fusion protein; in assay [1]) were 186 nM and 484 nM, respectively.
As for `C=CC(=O)N(c1ccccc1)c1c(C#N)cnc2cc(OC)c(OC)cc12`, the inhibition came to 7.1% in assay [10] and 9.5% in the assay listed under Homo sapiens.
Turning to `C=CC(=O)N(c1cc(OC)c(Cl)cc1Cl)c1c(C#N)cnc2cc(OCCCN3CCCCC3)c(OC)cc12`, the half-maximal effective concentration (EC50) amounted to 3190 nM with K562 [2], 5500 nM with A549 [3] and 6380 nM with HCT-116 [6]. For the same compound, the IC50 at Bcr/Abl fusion protein stood at 214 nM; in assay [1], 169 nM.
With `COc1cc2ncc(C#N)c(Nc3ccc(Cl)cc3Cl)c2cc1OC`, the IC50 on Bcr/Abl fusion protein was 4.38 nM; in assay [1], 4.67 nM.
As for `COc1cc(Nc2c(C#N)cnc3cc(OCCCN4CCN(C)CC4)c(OC)cc23)c(Cl)cc1Cl` [BOSUTINIB], the EC50 with K562 [2] came to 690 nM; with A549 [3], 970 nM; with HCT-116 [6] it was 3420 nM. In addition, the IC50 in assay [1] came to 0.14 nM.
In the case of `COc1cc2ncc(C#N)c(Nc3ccc(Br)cc3Br)c2cc1OC`, the IC50 on Bcr/Abl fusion protein came to 5430 nM; in assay [1], 2440 nM.
As to `C=CC(=O)N(c1cc(OC)ccc1Cl)c1c(C#N)cnc2cc(OCCCN3CCOCC3)c(OC)cc12`, the inhibition at 10 µM with K562 [7] amounted to 40%; in the assay with MCF7 [5], 25%; with A549 [9] it was 31%. The IC50 on Bcr/Abl fusion protein turned out to be 193 nM; in assay [1] it was 207 nM.
As to `COc1cc(Nc2c(C#N)cnc3cc(OCCCN4CCOCC4)c(OC)cc23)c(Cl)cc1Cl`, the half-maximal effective concentration (EC50) was found to be 6430 nM in the assay on K562 [2], 7400 nM in the assay on A549 [3] and 8670 nM in the assay with MCF7 [4]. For the same compound, the 50% inhibitory concentration (IC50) on Bcr/Abl fusion protein is 0.42 nM; in assay [1] it was 0.27 nM.
Turning to `COc1ccc(Cl)c(Nc2c(C#N)cnc3cc(OCCCN4CCN(C)CC4)c(OC)cc23)c1`, in the assay with K562 [7], the inhibition at 10 µM amounted to 46%. Also, the concentration for half-maximal inhibition (IC50) on Bcr/Abl fusion protein amounted to 0.06 nM; in assay [1], 0.23 nM. Further, the figures for the EC50 in the assay with A549 [3] and in the assay on MCF7 [4] were 4510 nM and 4490 nM, respectively.
In the case of `COc1ccc(Cl)c(Nc2c(C#N)cnc3cc(OC)c(OC)cc23)c1`, the figures for the IC50 (at Bcr/Abl fusion protein; in assay [1]) were 0.64 nM and 0.89 nM, respectively.
